Laboratory results reported in patent US20240173307A1, “MODULATORS OF THE INTEGRATED STRESS PATHWAY” (Calico Life Sciences LLC, priority 2017, published 2024).

Tested on: HEK293T cells carrying the ATF4 luciferase reporter
Experiment: ATF4-Luc assay (in vitro model of vanishing white matter disease)
Format: cell-based
Conditions: Homo sapiens, HEK-293T, 1 μg/mL tunicamycin, 7 hours
Experimental: In order to test exemplary compounds of the invention in a cellular context, a stable VWMD cell line was first constructed. The ATF4 reporter was prepared by fusing the human full-length ATF4 5′-UTR (NCBI Accession No. BCO22088.2) in front of the firefly luciferase (FLuc) coding sequence lacking the initiator methionine as described in Sidrauski et al (eLife 2013). The construct was used to produce recombinant retroviruses using standard methods and the resulting viral supernatant was used to transduce HEK293T cells, which were then subsequently selected with puromycin to generate a stable cell line.
HEK293T cells carrying the ATF4 luciferase reporter were plated on polylysine coated 384-well plates (Greiner Bio-one) at 30,000 cells per well. Cells were treated the next day with 1 μg/mL tunicamycin and 200 nM of a compound of Formula (I) for 7 hours. Luminescence was measured using One Glo (Promega) as specified by the manufacturer. Cells were maintained in DMEM with L-glutamine supplemented with 10% heat-inactivated FBS (Gibco) and Antibiotic-Antimycotic solution (Gibco).
Table 2 below summarizes the EC50 data obtained using the ATF4-Luc assay for exemplary compounds of the invention.

O=C(COc1ccc(F)c(F)c1)NC12CC(C(=O)Nc3ccc(OC(F)(F)F)cn3)(C1)C2 [Compound 308, 3-[2-(3,4-difluorophenoxy)acetamido]-N-[5-(trifluoromethoxy)pyridin-2-yl]bicyclo[1.1.1]pentane-1-carboxamide]
EC50: < 250 nM

O=C(COc1ccc(Cl)c(F)c1)NC12CC(C(=O)Nc3ccc(OC(F)F)cn3)(C1)C2 [Compound 309, 3-[2-(4-chloro-3-fluorophenoxy)acetamido]-N-[5-(difluoromethoxy)pyridin-2-yl]bicyclo[1.1.1]pentane-1-carboxamide]
EC50: < 250 nM

O=C(COc1ccc(Cl)c(F)c1)NC12CC(C(=O)Nc3ccc(OCC(F)(F)F)nc3)(C1)C2 [Compound 310, 3-[2-(4-chloro-3-fluorophenoxy)acetamido]-N-[6-(2,2,2-trifluoroethoxy)pyridin-3-yl]bicyclo[1.1.1]pentane-1-carboxamide]
EC50: < 250 nM

CCOC(=O)c1ccc(NC(=O)C23CC(NC(=O)COc4ccc(Cl)c(F)c4)(C2)C3)nc1 [Compound 311, ethyl 6-({3-[2-(4-chloro-3-fluorophenoxy)acetamido]bicyclo[1.1.1]pentane-1-carbonyl}amino)pyridine-3-carboxylate]
EC50: 250 to 500 nM

CCOC(=O)c1csc(NC(=O)C23CC(NC(=O)COc4ccc(Cl)c(F)c4)(C2)C3)n1 [Compound 312, ethyl 2-({3-[2-(4-chloro-3-fluorophenoxy)acetamido]bicyclo[1.1.1]pentane-1-carbonyl}amino)-1,3-thiazole-4-carboxylate]
EC50: 250 to 500 nM

O=C(COc1ccc(Cl)c(F)c1)NC12CC(C(=O)Nc3cc(CO)ccn3)(C1)C2 [Compound 313, 3-[2-(4-chloro-3-fluorophenoxy)acetamido]-N-[4-(hydroxymethyl)pyridin-2-yl]bicyclo[1.1.1]pentane-1-carboxamide]
EC50: 1000 to 2000 nM

O=C(COc1ccc(Cl)c(F)c1)NC12CC(C(=O)Nc3ccccc3F)(C1)C2 [Compound 314, 3-[2-(4-chloro-3-fluorophenoxy)acetamido]-N-(2-fluorophenyl)bicyclo[1.1.1]pentane-1-carboxamide]
EC50: 500 to 1000 nM

O=C(NC12CC(C(=O)Nc3ccc(OC(F)(F)F)cn3)(C1)C2)c1ccc(OC(F)(F)F)cn1 [Compound 315, 5-(trifluoromethoxy)-N-(3-{[5-(trifluoromethoxy)pyridin-2-yl]carbamoyl}bicyclo[1.1.1]pentan-1-yl)pyridine-2-carboxamide]
EC50: 500 to 1000 nM

O=C(COc1ccc(Cl)c(F)c1)NC12CCC(C(=O)Nc3ccc(C(F)(F)F)cn3)(CC1)C(O)C2 (centres unmarked) [Compound 316, 4-[2-(4-chloro-3-fluorophenoxy)acetamido]-2-hydroxy-N-[5-(trifluoromethyl)pyridin-2-yl]bicyclo[2.2.2]octane-1-carboxamide]
EC50: 500 to 1000 nM

CC(O)(CNC(=O)C12CC(NC(=O)COc3ccc(Cl)c(F)c3)(C1)C2)c1ccc(Cl)cc1 (centres unmarked) [Compound 317, 3-[2-(4-chloro-3-fluorophenoxy)acetamido]-N-[2-(4-chlorophenyl)-2-hydroxypropyl]bicyclo[1.1.1]pentane-1-carboxamide]
EC50: 1000 to 2000 nM

O=C(COc1ccc(Cl)c(F)c1)NC12CC(C(=O)NC(CO)c3ccc(Cl)cc3)(C1)C2 (centres unmarked) [Compound 318, 3-[2-(4-chloro-3-fluorophenoxy)acetamido]-N-[1-(4-chlorophenyl)-2-hydroxyethyl]bicyclo[1.1.1]pentane-1-carboxamide]
EC50: > 2000 nM

O=C(COc1ccc(Cl)c(F)c1)NC12CCC(C(=O)NCc3nc4cc(F)c(F)cc4[nH]3)(CC1)CC2O (centres unmarked) [Compound 319, 4-[2-(4-chloro-3-fluorophenoxy)acetamido]-N-[(5,6-difluoro-1H-benzimidazol-2-yl)methyl]-3-hydroxybicyclo[2.2.2]octane-1-carboxamide]
EC50: < 250 nM

NC(=O)CN(Cc1ccc(Cl)c(F)c1)C(=O)C12CCC(NC(=O)COc3ccc(Cl)c(F)c3)(CC1)CC2 [Compound 320, N-(2-amino-2-oxoethyl)-4-[2-(4-chloro-3-fluorophenoxy)acetamido]-N-[(4-chloro-3-fluorophenyl)methyl]bicyclo[2.2.2]octane-1-carboxamide]
EC50: 500 to 1000 nM

COc1ccc(CNC(=O)C23CCC(NC(=O)COc4ccc(Cl)c(F)c4)(CC2)C(O)C3)nn1 (centres unmarked) [Compound 321, 4-[2-(4-chloro-3-fluorophenoxy)acetamido]-3-hydroxy-N-[(6-methoxypyridazin-3-yl)methyl]bicyclo[2.2.2]octane-1-carboxamide]
EC50: > 2000 nM

COc1ccc(CNC(=O)C23CC(NC(=O)COc4ccc(Cl)c(F)c4)(C2)C3)nn1 [Compound 322, 3-[2-(4-chloro-3-fluorophenoxy)acetamido]-N-[(6-methoxypyridazin-3-yl)methyl]bicyclo[1.1.1]pentane-1-carboxamide]
EC50: > 2000 nM

Cn1c(CNC(=O)C23CCC(NC(=O)COc4ccc(Cl)c(F)c4)(CC2)CC3)nc2cc(F)ccc21 [Compound 323, 4-[2-(4-chloro-3-fluorophenoxy)acetamido]-N-[(5-fluoro-1-methyl-1H-benzimidazol-2-yl)methyl]bicyclo[2.2.2]octane-1-carboxamide]
EC50: < 250 nM

O=C(COc1ccc(Cl)c(F)c1)NC12CCC(C(=O)NCc3nc4cc(F)c(F)cc4[nH]3)(CC1)CC2 [Compound 324, 4-[2-(4-chloro-3-fluorophenoxy)acetamido]-N-[(5,6-difluoro-1H-benzimidazol-2-yl)methyl]bicyclo[2.2.2]octane-1-carboxamide]
EC50: < 250 nM

O=C(COc1ccc(Cl)c(F)c1)NC12CCC(C(=O)NCc3nc4ccc(Cl)cc4[nH]3)(CC1)CC2 [Compound 325, N-[(6-chloro-1H-benzimidazol-2-yl)methyl]-4-[2-(4-chloro-3-fluorophenoxy)acetamido]bicyclo[2.2.2]octane-1-carboxamide]
EC50: < 250 nM

O=C(COc1ccc(Cl)c(F)c1)NC12CCC(C(=O)NCC(=O)c3ccc(Cl)c(F)c3)(CC1)[C@@H](O)C2 [Compound 326, (2S)-4-[2-(4-chloro-3-fluorophenoxy)acetamido]-N-[2-(4-chloro-3-fluorophenyl)-2-oxoethyl]-2-hydroxybicyclo[2.2.2]octane-1-carboxamide]
EC50: < 250 nM

O=C(COc1ccc(Cl)c(F)c1)NC12CCC(C(=O)NCc3nc4ccccc4[nH]3)(CC1)CC2 [Compound 327, N-[(1H-benzimidazol-2-yl)methyl]-4-[2-(4-chloro-3-fluorophenoxy)acetamido]bicyclo[2.2.2]octane-1-carboxamide]
EC50: < 250 nM

O=C(O)Cn1c(CNC(=O)C23CC(NC(=O)COc4ccc(Cl)c(F)c4)(C2)C3)nc2cc(F)c(F)cc21 [Compound 328, {2-[({3-[2-(4-chloro-3-fluorophenoxy)acetamido]bicyclo[1.1.1]pentane-1-carbonyl}amino)methyl]-5,6-difluoro-1H-benzimidazol-1-yl}acetic acid]
EC50: 1000 to 2000 nM

O=C(COc1ccc(Cl)c(F)c1)NC12CCC(C(=O)NCc3ccc(C(F)(F)F)cn3)(CC1)C(=O)N2CCO [Compound 329, 1-[2-(4-chloro-3-fluorophenoxy)acetamido]-2-(2-hydroxyethyl)-3-oxo-N-{[5-(trifluoromethyl)pyridin-2-yl]methyl}-2-azabicyclo[2.2.2]octane-4-carboxamide]
EC50: < 250 nM

CC(NC(=O)C12CC(NC(=O)COc3ccc(Cl)c(F)c3)(C1)C2)c1cc2cc(Cl)ccc2o1 (centres unmarked) [Compound 330, N-[1-(5-chloro-1-benzofuran-2-yl)ethyl]-3-[2-(4-chloro-3-fluorophenoxy)acetamido]bicyclo[1.1.1]pentane-1-carboxamide]
EC50: 1000 to 2000 nM

O=C(COc1ccc(Cl)c(F)c1)NC12CC(C(=O)NCc3nc4cc(F)c(F)cc4[nH]3)(C1)C2 [Compound 331, 3-[2-(4-chloro-3-fluorophenoxy)acetamido]-N-[(5,6-difluoro-1H-benzimidazol-2-yl)methyl]bicyclo[1.1.1]pentane-1-carboxamide]
EC50: < 250 nM

O=C(COc1ccc(Cl)c(F)c1)NC12CCC(C(=O)NCc3cc(C(F)(F)F)ccn3)(CC1)CC2 [Compound 332, 4-[2-(4-chloro-3-fluorophenoxy)acetamido]-N-{[4-(trifluoromethyl)pyridin-2-yl]methyl}bicyclo[2.2.2]octane-1-carboxamide]
EC50: < 250 nM

O=C(COc1ccc(Cl)c(F)c1)NC12CCC(C(=O)NCc3ccc(C(F)(F)F)cn3)(CC1)C(=O)N2 [Compound 333, 1-[2-(4-chloro-3-fluorophenoxy)acetamido]-3-oxo-N-{[5-(trifluoromethyl)pyridin-2-yl]methyl}-2-azabicyclo[2.2.2]octane-4-carboxamide]
EC50: < 250 nM

O=C(COc1ccc(Cl)c(F)c1)NC12CCC(C(=O)NCc3ccc(Cl)c(F)c3)(CC1)OC2 [Compound 334, 4-[2-(4-chloro-3-fluorophenoxy)acetamido]-N-[(4-chloro-3-fluorophenyl)methyl]-2-oxabicyclo[2.2.2]octane-1-carboxamide]
EC50: 250 to 500 nM

O=C(COc1ccc(Cl)c(F)c1)NC12CCC(C(=O)NCc3ccc(C(F)(F)F)cn3)(CC1)OC2 [Compound 335, 4-[2-(4-chloro-3-fluorophenoxy)acetamido]-N-{[5-(trifluoromethyl)pyridin-2-yl]methyl}-2-oxabicyclo[2.2.2]octane-1-carboxamide]
EC50: < 250 nM

O=C(COc1ccc(Cl)c(F)c1)NC12CCC(C(=O)Nc3ccc(OC(F)(F)F)cc3)(CC1)OC2 [Compound 336, 4-[2-(4-chloro-3-fluorophenoxy)acetamido]-N-[4-(trifluoromethoxy)phenyl]-2-oxabicyclo[2.2.2]octane-1-carboxamide]
EC50: < 250 nM
